System: Bovine aortic endothelial cells (BAECs)
Assay: Shear stress-induced NO production by endothelial cells in the two-compartment flow chamber, NO electrode measurement
Format: cell-based
Settings: 1 mM L-NAME
Procedure: Bovine aortic endothelial cells (BAECs) were cultured in Dulbecco's modified Eagle's medium (Mediatech Cellgro), supplemented with 10% fetal bovine serum (Sigma), 2 mmol/l L-glutamine (Mediatech Cellgro), and penicillin-streptomycin (Mediatech Cellgro). The cells were grown to confluency and subsequently plated onto the lower surface of individual polyester Transwell® membranes (Corning Transwell Permeable Supports having a 24 mm diameter culture area with 3 μm pores). The Transwell® membranes were then placed in an incubator overnight, inverted and cultured for 1 day before conducting the experimental study. The Transwell® membranes were subsequently washed 3 three times with a solution of Dulbecco's Phosphate Buffered Saline (PBS) with calcium/magnesium (Sigma) supplemented with 70 μM L-arginine (L-arg) (Sigma) and inserted into the flow chamber.
The flow chamber included an electrode and equipment for measuring NO (TBR4100 4-channel Free Radical Analyzer and 200 μm diameter mini sensors for NO measurements ISO-NOPF). The electrodes were frequently recoated with nafion (Sigma) and re-calibrated during the experimental study to improve selectivity. The recoating process involved at least two dip/dry sessions. The electrodes were calibrated by the decomposition of a NO donor S-nitroso-N-acetyl-penicillamine (SNAP) using Cu(II). The SNAP was prepared by dissolving 5 mg EDTA and 5.0 mg+/−2.0 mg of SNAP in 250 mL HPLC grade water. The electrode was immersed in 12 mL of 0.1 M copper(II) sulfate in distilled water for about 1 to about 2 hours until the electrode stabilized. Aliquots of SNAP were sequentially added in an amount of about 10 μL, 20 μL, 40 μL, 80 μL after each signal reached a plateau. A multipoint calibration plot was created using Data-Trax software (produced by WPI). The sampling rate was 10 samples/s. The change in recorded potential was converted to corresponding molarities of NO produced by SNAP addition. The efficiency of the conversion of SNAP to NO was 0.6. Electrode sensitivity was at least about 10 pA/nM. […] The temperature probe supplied by WPI was pre-scaled using a two-point entry of known temperatures (0.03125V=1° C., 0.625V=20° C.).
The dimensions (in cm) of the flow channel were about: 4.57 W×12.19 L×0.025 H. The flow inlet and outlet had large reservoirs with sampling ports. A glass coverslip covered an opening in the bottom plate, allowing visualization of the cell layer and the electrode on an inverted microscope. As shown in FIGS. 5-6, endothelial cells were grown on the lower surface of a Transwell® porous membrane, which fit into the flow chamber flush with the upper plate of the flow chamber. […] Below the Transwell® membrane, fluid flowed through the parallel plate channel that defined the lower compartment, exposing the endothelial cells to uniform shear stress. Above the Transwell® membrane, a stagnant upper fluid compartment, having a small volume housed the NO electrode and temperature sensor. This design placed the electrode out of the fluid flow avoiding problems associated with potential flow sensitivities, flow disturbances and chamber leaking at the electrode insertion site. Furthermore, due to the small volume and zero flux condition at the other boundaries of the stagnant upper fluid compartment and the short diffusion distance through the membrane, the concentration of NO in the upper fluid compartment was nearly uniform and rapidly equilibrated with the concentration in the cell layer. The electrode was lowered into the upper compartment of the flow chamber until it rested on the surface of the Transwell® membrane at a fixed distance from the ECs of about 10 μm equal to the thickness of the membrane. This configuration allowed the NO generated by the cells to be measured abluminally from the endothelial cell layer. Due to the temperature sensitivity of the NO electrode, the flow chamber was enclosed in a water bath at 37° C. in order to prevent heat loss and temperature fluctuations. […]

With `COC(=O)[C@@H](N)CCCNC(=N)N[N+](=O)[O-]` [L-NAME, Nω-Nitro-L-arginine methyl ester] the “RNO (NO production rate) as % of RNO estimated from untreated ECs, hyperbolic model” value (L-arg also in perfusate, shear stress change 0.1 to 20 dyn/cm^2, hyperbolic model fit) was “about 57.6%”, the “RNO (NO production rate) as % of RNO estimated from untreated ECs, linear model” value (L-arg also in perfusate, shear stress change 0.1 to 20 dyn/cm^2, linear model fit) was “about 57.3%” and the “RNO (NO production rate) as % of RNO estimated from untreated ECs, sigmoidal model” value (L-arg also in perfusate, shear stress change 0.1 to 20 dyn/cm^2, sigmoidal model fit) was “about 58.3%”. For the same molecule, the “reduction of steady-state NO concentration changes in response to shear stress step changes after treatment with L-NAME” value (pH 7.2, step changes from 0.1 dyn/cm^2 to 1, 6, 10 or 20 dyn/cm^2, vs before treatment, FIG. 10) was 40%, the “effect on shear stress-induced NO concentration changes (Example 1, in words)” value (flow-induced shear stress stimulation) was “partially attenuated” and the “steady-state NO concentration changes after treatment, as % of the untreated values (average)” value (shear stress step changes from 0.1 dyn/cm^2, FIG. 10) was 60%. The “effect on flow induced NO response (Example 2)” value (step changes from about 1 to about 5 and about 1 to about 10 dyn/cm^2) was “significantly reduced”.

From patent US9535058B2, “Flow chamber analyte detection method” (Drexel University, priority 2010, dated 2017)
